Substitutions are numbered along the chain they refer to.
Assays:
[1] = biological target: T1, STAT5b SH2 domain (Homo sapiens, UniProt P51692); experiment: Fluorescence polarization assay, STAT5b SH2 domain; format: binding
T1 sequence (P51692 1-787): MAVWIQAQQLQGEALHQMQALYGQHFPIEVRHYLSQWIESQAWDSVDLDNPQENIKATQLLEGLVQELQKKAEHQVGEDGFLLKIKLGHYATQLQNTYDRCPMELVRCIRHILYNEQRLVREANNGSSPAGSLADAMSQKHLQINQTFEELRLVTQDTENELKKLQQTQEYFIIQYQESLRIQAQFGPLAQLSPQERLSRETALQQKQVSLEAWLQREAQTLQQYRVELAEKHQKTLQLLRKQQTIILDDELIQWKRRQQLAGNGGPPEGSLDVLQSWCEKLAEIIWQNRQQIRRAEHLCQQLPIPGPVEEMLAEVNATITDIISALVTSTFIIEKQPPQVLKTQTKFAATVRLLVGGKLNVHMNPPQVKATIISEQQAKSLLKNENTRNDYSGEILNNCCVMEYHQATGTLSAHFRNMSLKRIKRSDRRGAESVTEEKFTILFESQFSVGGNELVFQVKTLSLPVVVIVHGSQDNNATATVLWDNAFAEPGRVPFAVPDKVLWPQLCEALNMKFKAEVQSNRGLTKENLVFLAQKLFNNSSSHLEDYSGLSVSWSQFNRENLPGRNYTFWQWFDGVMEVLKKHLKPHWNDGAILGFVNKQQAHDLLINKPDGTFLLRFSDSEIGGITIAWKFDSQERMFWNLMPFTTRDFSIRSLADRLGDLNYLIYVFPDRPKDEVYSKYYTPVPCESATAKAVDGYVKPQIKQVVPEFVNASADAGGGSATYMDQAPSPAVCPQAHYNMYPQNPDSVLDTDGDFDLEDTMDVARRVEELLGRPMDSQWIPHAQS

[2] = biological target: T2, STAT6 (Homo sapiens, UniProt P42226); experiment: Fluorescence polarization assay, STAT6; format: binding
T2 sequence (P42226 1-847): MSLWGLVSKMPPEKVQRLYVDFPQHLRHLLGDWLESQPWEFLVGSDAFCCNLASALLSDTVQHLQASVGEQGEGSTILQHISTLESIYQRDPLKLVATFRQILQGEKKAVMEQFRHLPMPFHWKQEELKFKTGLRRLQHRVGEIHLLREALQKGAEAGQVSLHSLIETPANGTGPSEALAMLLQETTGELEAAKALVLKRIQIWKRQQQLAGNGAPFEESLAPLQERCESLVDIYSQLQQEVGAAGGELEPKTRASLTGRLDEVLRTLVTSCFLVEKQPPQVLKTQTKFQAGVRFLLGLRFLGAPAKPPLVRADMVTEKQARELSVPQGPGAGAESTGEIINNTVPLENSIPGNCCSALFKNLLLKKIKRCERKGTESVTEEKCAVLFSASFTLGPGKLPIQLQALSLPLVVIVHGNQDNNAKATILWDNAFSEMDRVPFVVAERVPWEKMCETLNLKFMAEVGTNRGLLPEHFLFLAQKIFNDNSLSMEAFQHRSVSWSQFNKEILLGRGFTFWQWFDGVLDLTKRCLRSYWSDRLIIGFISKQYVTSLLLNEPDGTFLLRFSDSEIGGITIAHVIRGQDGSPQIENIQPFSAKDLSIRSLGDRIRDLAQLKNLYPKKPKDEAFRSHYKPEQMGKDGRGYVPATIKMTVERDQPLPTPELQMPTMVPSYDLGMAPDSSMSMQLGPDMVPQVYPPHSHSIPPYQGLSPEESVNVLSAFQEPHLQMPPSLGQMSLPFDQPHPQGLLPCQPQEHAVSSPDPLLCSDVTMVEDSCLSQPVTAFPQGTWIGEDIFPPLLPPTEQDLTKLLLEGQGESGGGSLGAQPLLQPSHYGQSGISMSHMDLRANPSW

[3] = biological target: T3, Lck SH2 (Homo sapiens, UniProt P06239); experiment: Fluorescence polarization assay, Lck SH2; format: binding; details: read-out: Lck SH2 maximum inhibition
T3 construct: the more distantly related SH2 domain of the tyrosine kinase Lck

[4] = biological target: T4, STAT5b Phe633Ala, Tyr665Ala (Homo sapiens, UniProt P51692, F633A/Y665A); experiment: Isothermal titration calorimetry, STAT5b Phe633Ala, Tyr665Ala double mutant; format: binding; details: ITC, 25 °C, n = 3
T4 sequence (P51692 1-787 F633A/Y665A): T1 sequence (P51692 1-787) with F633A, Y665A

[5] = test system: STAT5a-GFP; experiment: STAT5a Tyr694 phosphorylation in STAT5a-GFP-transfected K562 cells (Western blot); format: cell-based, human; details: 4 h, result in words

T3 sequence (P06239 127-224 limits assumed): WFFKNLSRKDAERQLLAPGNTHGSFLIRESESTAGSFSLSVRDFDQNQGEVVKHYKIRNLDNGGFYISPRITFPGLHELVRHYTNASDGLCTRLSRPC

Compound: O=C(COc1ccc(C(=O)Nc2ccc(Oc3ccccc3)cc2)cc1)NCc1ccc(OP(=O)(O)O)c(OP(=O)(O)O)c1 [compound 4, 4-((2-(4-((4-phenoxyphenyl)carbamoyl)phenoxy)acetamido)methyl)-1,2-phenylene bis(dihydrogen phosphate)]
- fold reduced Ki value relative to 2 ([1]; STAT5b Ki): 5 fold
- fold reduction in Ki value relative to 3 ([1]; STAT5b Ki): more than 10 fold
- Ki ([1]; abstract, rounded): 9 nM
- Ki ([1]; converted from IC50 using the published equation, mean ± s.d., n = 3): 8.8 ± 0.3 nM
- IC50 ([1]; fluorescence polarization, mean ± s.d., three independent experiments): 82 ± 3 nM
- Ki ([2]; converted from IC50 using the published equation): 11700 ± 1200 nM
- IC50 ([2]; fluorescence polarization): 23700 ± 2500 nM
- inhibition at 40 µM [3]: 25 ± 2%
- Kd [4]: 3800 ± 1700 nM
- ΔH [4]: -5.1 ± 0.5 kcal/mol
- −TΔS [4]: -2.4 ± 0.3 kcal/mol
- inhibition of STAT5a phosphorylation [5]: did not show significant activity

— article PMC5429769, “Rational development of Stafib-2: a selective, nanomolar inhibitor of the transcription factor STAT5b” (Scientific Reports, 2017)
